Source: publication PMC8645336, “Benchmarking a highly selective USP30 inhibitor for enhancement of mitophagy and pexophagy” (Life Science Alliance, 2021)

Biological target: T1, USP25 (Homo sapiens, UniProt Q9UHP3)
T1 sequence (Q9UHP3 1-1055): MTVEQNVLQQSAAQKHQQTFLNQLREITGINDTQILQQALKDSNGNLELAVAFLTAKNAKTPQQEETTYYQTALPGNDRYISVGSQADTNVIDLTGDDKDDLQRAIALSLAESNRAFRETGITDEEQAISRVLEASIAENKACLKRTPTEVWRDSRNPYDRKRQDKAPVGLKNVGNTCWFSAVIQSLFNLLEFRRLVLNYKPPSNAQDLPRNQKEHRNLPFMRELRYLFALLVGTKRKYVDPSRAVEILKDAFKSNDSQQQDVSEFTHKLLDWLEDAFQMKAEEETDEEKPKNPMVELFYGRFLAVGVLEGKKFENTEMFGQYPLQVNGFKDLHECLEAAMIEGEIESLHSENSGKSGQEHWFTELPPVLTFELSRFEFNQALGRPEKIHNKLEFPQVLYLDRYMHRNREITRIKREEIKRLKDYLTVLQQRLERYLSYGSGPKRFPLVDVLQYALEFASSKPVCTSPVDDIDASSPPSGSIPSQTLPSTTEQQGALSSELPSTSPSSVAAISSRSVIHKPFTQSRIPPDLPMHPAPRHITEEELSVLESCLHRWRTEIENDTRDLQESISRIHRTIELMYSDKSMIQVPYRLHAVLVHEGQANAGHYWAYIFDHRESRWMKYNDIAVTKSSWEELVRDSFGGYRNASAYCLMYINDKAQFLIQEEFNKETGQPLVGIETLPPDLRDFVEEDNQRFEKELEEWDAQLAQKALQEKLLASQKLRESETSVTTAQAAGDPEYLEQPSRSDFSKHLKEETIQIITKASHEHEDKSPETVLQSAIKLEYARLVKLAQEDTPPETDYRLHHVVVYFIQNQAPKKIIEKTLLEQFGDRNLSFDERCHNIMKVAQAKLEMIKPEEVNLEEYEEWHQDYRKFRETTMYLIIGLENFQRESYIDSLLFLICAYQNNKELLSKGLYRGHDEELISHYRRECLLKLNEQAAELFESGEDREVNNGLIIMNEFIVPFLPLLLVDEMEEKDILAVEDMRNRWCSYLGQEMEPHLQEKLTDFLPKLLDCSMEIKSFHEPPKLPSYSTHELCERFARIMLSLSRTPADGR
Experiment: biochemical
Set-up: Ubiquigent DUB profiler selectivity panel, remaining enzyme activity as % of control
Conditions: read-out: % of control remaining
Summary of the method: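 In YFP-PRKN-overexpressing hTERT-RPE1 cells, 1 h antimycin A plus oligomycin A (1 μM each) with CMPD-39, then Western blot of TOMM20 ubiquitylation. Target engagement: 2 h compound, then 10 min HA-Ub-PA at 37°C, read as USP30 shift. DUB panel (>40 enzymes) screened at 1-100 μM.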

- remaining activity at 1 µM: 103%
- remaining activity at 10 µM: 94.5%
- remaining activity at 100 µM: 103%
SMILES: CC(C)(C)NS(=O)(=O)c1ccc(NC(=O)[C@H](Cc2ccccc2)NC(=O)c2ccc(F)cc2)cc1 [compound 39, CMPD-39]
